Organism: Rattus norvegicus
Assay: Open TG-GATES - Regimen: Daily Repeat
Assay type: toxicity, organism-based, Sprague-Dawley
Set-up: regimen Daily Repeat, gender Male, age 6 weeks
Conditions: in vivo, po, 1000 mg/kg, route gavage, dose level High; for APTT / Bas / Eos / Fbg / Hb / Ht / Lym / MCH / MCHC / MCV / Mono / Neu / PT / Plat / RBC / Ret / WBC: tissue Blood; for KIDNEY_L / KIDNEY_R / KIDNEY_TOTAL: tissue Kidney; for LIVER: tissue Liver; for A/G / ALP / ALT / AST / BUN / CRE / Ca / Cl / DBIL / GLC / IP / K / LDH / Na / PL / RALB / TBIL / TC / TG / TP / gamma-GTP: tissue Plasma

Compound: CC(=O)[C@@]1(O)CC[C@H]2[C@@H]3C=C(Cl)C4=CC(=O)CC[C@]4(C)[C@H]3CC[C@@]21C [CHLORMADINONE]
- TERMINAL_BW (72 h, time 3 day): 236.9 g
- APTT (72 h, time 3 day): 28 s
- Bas (72 h, time 3 day): 0%
- Eos (72 h, time 3 day): 1.2%
- Fbg (72 h, time 3 day): 321.4 mg/dL
- Hb (72 h, time 3 day): 13.9 g/dL
- Ht (72 h, time 3 day): 42%
- Lym (72 h, time 3 day): 76.8%
- MCH (72 h, time 3 day): 20.2 pg
- MCHC (72 h, time 3 day): 33.1%
- MCV (72 h, time 3 day): 61 fL
- Mono (72 h, time 3 day): 3%
- Neu (72 h, time 3 day): 18.2%
- PT (72 h, time 3 day): 14.4 s
- Plat (72 h, time 3 day): 126.4 x10_4/uL
- RBC (72 h, time 3 day): 690 x10_4/ul
- Ret (72 h, time 3 day): 6.9%
- WBC (72 h, time 3 day): 122 x10_2/uL
- KIDNEY_L (72 h, time 3 day): 1 g
- KIDNEY_R (72 h, time 3 day): 1 g
- KIDNEY_TOTAL (72 h, time 3 day): 2 g
- LIVER (72 h, time 3 day): 12.4 g
- A/G (72 h, time 3 day): 1.2
- ALP (72 h, time 3 day): 1434.6 IU/L
- ALT (72 h, time 3 day): 53 IU/L
- AST (72 h, time 3 day): 71 IU/L
- BUN (72 h, time 3 day): 17.4 mg/dL
- CRE (72 h, time 3 day): 0.2 mg/dL
- Ca (72 h, time 3 day): 11 mg/dL
- Cl (72 h, time 3 day): 105.2 meq/L
- DBIL (72 h, time 3 day): 0 mg/dL
- GLC (72 h, time 3 day): 191.8 mg/dL
- IP (72 h, time 3 day): 7.7 mg/dL
- K (72 h, time 3 day): 4.8 meq/L
- LDH (72 h, time 3 day): 190.2 IU/L
- Na (72 h, time 3 day): 140.4 meq/L
- PL (72 h, time 3 day): 198.4 mg/dL
- RALB (72 h, time 3 day): 3.3 g/dL
- TBIL (72 h, time 3 day): 0.004 mg/dL
- TC (72 h, time 3 day): 95.2 mg/dL
- TG (72 h, time 3 day): 154.2 mg/dL
- TP (72 h, time 3 day): 6 g/dL
- gamma-GTP (72 h, time 3 day): 2 IU/L
- TERMINAL_BW ([…], time 7 day): 245 g
- TERMINAL_BW ([…], time 14 day): 286.4 g
- TERMINAL_BW ([…], time 28 day): 342.2 g
- APTT ([…], time 7 day): 30 s
- Bas ([…], time 7 day): 0%
- Eos ([…], time 7 day): 0.8%
- Fbg ([…], time 7 day): 327.6 mg/dL
- Hb ([…], time 7 day): 15.1 g/dL
- Ht ([…], time 7 day): 44.5%
- Lym ([…], time 7 day): 84.4%
- MCH ([…], time 7 day): 20.2 pg
- MCHC ([…], time 7 day): 34%
- MCV ([…], time 7 day): 59.5 fL
- Mono ([…], time 7 day): 2.2%
- Neu ([…], time 7 day): 11.8%
- PT ([…], time 7 day): 15 s
- Plat ([…], time 7 day): 127.9 x10_4/uL
- RBC ([…], time 7 day): 748.8 x10_4/ul
- Ret ([…], time 7 day): 3.8%
- WBC ([…], time 7 day): 120.3 x10_2/uL
- APTT ([…], time 14 day): 28.9 s
- Bas ([…], time 14 day): 0%
- Eos ([…], time 14 day): 1%
- Fbg ([…], time 14 day): 322 mg/dL
- Hb ([…], time 14 day): 15.2 g/dL
- Ht ([…], time 14 day): 45%
- Lym ([…], time 14 day): 80%
- MCH ([…], time 14 day): 19.7 pg
- MCHC ([…], time 14 day): 33.9%
- MCV ([…], time 14 day): 58.1 fL
- Mono ([…], time 14 day): 2.8%
- Neu ([…], time 14 day): 14.4%
- PT ([…], time 14 day): 14.7 s
- Plat ([…], time 14 day): 100.3 x10_4/uL
- RBC ([…], time 14 day): 774.6 x10_4/ul
- Ret ([…], time 14 day): 2.6%
- WBC ([…], time 14 day): 106.2 x10_2/uL
- APTT ([…], time 28 day): 29.7 s
- Bas ([…], time 28 day): 0%
- Eos ([…], time 28 day): 1%
- Fbg ([…], time 28 day): 308 mg/dL
- Hb ([…], time 28 day): 15.8 g/dL
- Ht ([…], time 28 day): 45.5%
- Lym ([…], time 28 day): 86.4%
- MCH ([…], time 28 day): 18.2 pg
- MCHC ([…], time 28 day): 34.9%
- MCV ([…], time 28 day): 52.1 fL
- Mono ([…], time 28 day): 2.2%
- Neu ([…], time 28 day): 9.6%
- PT ([…], time 28 day): 15.1 s
- Plat ([…], time 28 day): 91.7 x10_4/uL
- RBC ([…], time 28 day): 873 x10_4/ul
- Ret ([…], time 28 day): 1.9%
- WBC ([…], time 28 day): 94.9 x10_2/uL
- KIDNEY_L ([…], time 7 day): 1 g
- KIDNEY_R ([…], time 7 day): 1 g
- KIDNEY_TOTAL ([…], time 7 day): 1.9 g
- KIDNEY_L ([…], time 14 day): 1.1 g
- KIDNEY_R ([…], time 14 day): 1.1 g
- KIDNEY_TOTAL ([…], time 14 day): 2.2 g
- KIDNEY_L ([…], time 28 day): 1.2 g
- KIDNEY_R ([…], time 28 day): 1.3 g
- KIDNEY_TOTAL ([…], time 28 day): 2.5 g
- LIVER ([…], time 7 day): 11 g
- LIVER ([…], time 14 day): 13.1 g
- LIVER ([…], time 28 day): 14.6 g
- A/G ([…], time 7 day): 1.3
- ALP ([…], time 7 day): 1456.8 IU/L
- ALT ([…], time 7 day): 45.8 IU/L
- AST ([…], time 7 day): 71.4 IU/L
- BUN ([…], time 7 day): 19.6 mg/dL
- CRE ([…], time 7 day): 0.2 mg/dL
- Ca ([…], time 7 day): 10.8 mg/dL
- Cl ([…], time 7 day): 106.8 meq/L
- DBIL ([…], time 7 day): 0 mg/dL
- GLC ([…], time 7 day): 187.2 mg/dL
- IP ([…], time 7 day): 7.2 mg/dL
- K ([…], time 7 day): 4.6 meq/L
- LDH ([…], time 7 day): 194 IU/L
- Na ([…], time 7 day): 140 meq/L
- PL ([…], time 7 day): 163.8 mg/dL
- RALB ([…], time 7 day): 3.3 g/dL
- TBIL ([…], time 7 day): 0.006 mg/dL
- TC ([…], time 7 day): 83.2 mg/dL
- TG ([…], time 7 day): 136 mg/dL
- TP ([…], time 7 day): 6 g/dL
- gamma-GTP ([…], time 7 day): 2 IU/L
- A/G ([…], time 14 day): 1.2
- ALP ([…], time 14 day): 1187.6 IU/L
- ALT ([…], time 14 day): 45.2 IU/L
- AST ([…], time 14 day): 71.2 IU/L
- BUN ([…], time 14 day): 18.6 mg/dL
- CRE ([…], time 14 day): 0.2 mg/dL
- Ca ([…], time 14 day): 10.7 mg/dL
- Cl ([…], time 14 day): 107.6 meq/L
- DBIL ([…], time 14 day): 0 mg/dL
- GLC ([…], time 14 day): 195 mg/dL
- IP ([…], time 14 day): 6.8 mg/dL
- K ([…], time 14 day): 4.4 meq/L
- LDH ([…], time 14 day): 160.8 IU/L
- Na ([…], time 14 day): 142 meq/L
- PL ([…], time 14 day): 171.2 mg/dL
- RALB ([…], time 14 day): 3.3 g/dL
- TBIL ([…], time 14 day): 0.004 mg/dL
- TC ([…], time 14 day): 81.2 mg/dL
- TG ([…], time 14 day): 177.4 mg/dL
- TP ([…], time 14 day): 6.1 g/dL
- gamma-GTP ([…], time 14 day): 2 IU/L
- A/G ([…], time 28 day): 1
- ALP ([…], time 28 day): 1076 IU/L
- ALT ([…], time 28 day): 58.4 IU/L
- AST ([…], time 28 day): 70.8 IU/L
- BUN ([…], time 28 day): 17.4 mg/dL
- CRE ([…], time 28 day): 0.2 mg/dL
- Ca ([…], time 28 day): 10.5 mg/dL
- Cl ([…], time 28 day): 105.2 meq/L
- DBIL ([…], time 28 day): 0 mg/dL
- GLC ([…], time 28 day): 194.8 mg/dL
- IP ([…], time 28 day): 6.1 mg/dL
- K ([…], time 28 day): 3.9 meq/L
- LDH ([…], time 28 day): 156 IU/L
- Na ([…], time 28 day): 142 meq/L
- PL ([…], time 28 day): 190.4 mg/dL
- RALB ([…], time 28 day): 3.4 g/dL
- TBIL ([…], time 28 day): 0.006 mg/dL
- TC ([…], time 28 day): 97.6 mg/dL
- TG ([…], time 28 day): 161.6 mg/dL
- TP ([…], time 28 day): 6.6 g/dL
- gamma-GTP ([…], time 28 day): 2.6 IU/L

Reference: ChEMBL document CHEMBL3885861, “Open TG-GATES”
